Test results from patent publication US10874743B2, “IRAK degraders and uses thereof” (Kymera Therapeutics, Inc., priority 2017, dated 2020).

Target: T1, IRAK4 (Homo sapiens, UniProt Q9NWZ3)
T1 sequence (Q9NWZ3 1-460): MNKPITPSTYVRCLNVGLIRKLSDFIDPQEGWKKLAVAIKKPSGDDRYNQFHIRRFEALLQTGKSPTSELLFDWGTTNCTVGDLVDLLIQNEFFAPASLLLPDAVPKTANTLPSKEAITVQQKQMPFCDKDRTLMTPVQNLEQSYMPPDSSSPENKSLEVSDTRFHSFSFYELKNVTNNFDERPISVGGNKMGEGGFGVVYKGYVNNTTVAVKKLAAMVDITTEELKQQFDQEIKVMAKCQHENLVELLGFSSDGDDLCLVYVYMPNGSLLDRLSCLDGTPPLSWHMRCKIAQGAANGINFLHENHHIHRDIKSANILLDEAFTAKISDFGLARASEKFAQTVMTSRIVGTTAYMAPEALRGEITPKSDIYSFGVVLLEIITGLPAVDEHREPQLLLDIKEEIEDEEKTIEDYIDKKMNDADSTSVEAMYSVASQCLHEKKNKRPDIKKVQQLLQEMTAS
Assay: OCI-LY-10 degradation assay (western blot, % IRAK4 degraded after 4 hours)
Type: cell-based
Design: endogenous in cells; host or cells: OCI-LY10
Settings: OCI-LY10 cells, IRAK4 degraded after 4 hours, western blot
Method: Compounds were reconstituted in DMSO to make stock solutions at concentration of 60 mM. THP-1 and OCI-LY10 cells were maintained in RPMI-1640 medium containing 10% FBS, 0.5 μM 2-ME or 20% FBS, 55 μM 2-ME, and 1% L-Glutamine respectively.
Cells were seeded into 6-well plates with 5e6 cells per well. 200 μL of diluted compounds were added to cells to the final concentration of 0.003-10 μM. After 4 or 24 hour-incubation at 37° C., cells were collected into 2 mL Eppendorf tubes and centrifuged at 1,000 rpm for 5 min. The cell pellets were washed with 1×DPBS once and resuspended in 60 μL lysis buffer. The cells were lysed on ice for 10 min, then centrifuged at 14,000 rpm for 10 min at 4° C. and the supernatants were collected for western blots. For THP-1 cells, the lysis buffer contained 40 mM pH 7.4 HEPES, 140 mM NaCl, 2.5 mM EDTA, 1% NP-40, 0.1% SDS, and protease inhibitor cocktail (Roche, Cat. No. 05892791001). For OCI-LY10 cells, RIPAbuffer (Thermo Fisher, 89900) with Halt Protease and Phosphatase Inhibitor Cocktail (Thermo Fisher, 78446) was applied.
The protein concentration of cell lysates was quantified with Pierce™ BCA Protein Assay Kit (Pierce, 23227). Albumin standards at different concentrations were prepared, involving 2,000 ug/mL, 1,500 ug/mL, 1,000 ug/mL, 750 ug/mL, 500 ug/mL, 250 ug/mL, 125 ug/mL, and 25 ug/mL. BCA working reagents were prepared by mixing BCA reagent A with reagent B in 50:1 ratio. 200 μL of the BCA working reagents were added to 25 μL of BCA standard or cell lysates in microplate, and mixed thoroughly on a plate shaker for 30 seconds. After incubation at 37° C. for 30 min, the absorbance of samples at 562 nm were measured with EnVision Plate Reader.
Protein lysates were prepared in NuPAGE™ LDS sample buffer and NuPAGE™ sample reducing agent, and incubated at 95° C. for 5 min. For western blots, 20-25 μg of total proteins were resolved in 4-12% Bis-Tris gels (Introgen, WG1403A) or 10% Bis-Tris Midi gels (Invitrogen, WG1202BOX) running with 1×MOPS SDS running buffer (Invitrogen, NP0001) or 1×MES SDS running buffer (Invitrogen, NP0002). The proteins were transferred to low fluorescence PVDF membranes using the Trans-Blot Turbo Transfer System. Membranes were then blocked in Odyssey blocking buffer at RT for 1 h followed by primary incubation at 4° C. overnight. The primary antibodies were IRAK1 rabbit monoclonal antibody (CST, #4504S, 1:500), IRAK3 rabbit polyclonal antibody (CST, #4369, 1:500), IRAK4 rabbit polyclonal antibody (CST, #4363S, 1:1,000), MyD88 rabbit monoclonal antibody (Abcam, Ab133739, 1:2,000), j3-actin mouse monoclonal antibody (Sigma, A5441, 10,000), and Gapdh mouse monoclonal antibody (Millipore, MAB374, 1:5,000). Membranes were washed three times with 1×TBST, and then incubated with IR Dye 800 CW Goat anti-rabbit (Licor, #926-32211) and IR Dye 700 CW Goat anti-mouse (Licor, #926-68070) secondary antibodies in 1:10,000 dilution at RT for 1 h. The western blot images were obtained using Odyssey Imaging System.
OCI-LY-10 results at 4 hours. The letter codes indicate the percentage of IRAK4 degraded after 4 hours: A (>50% degradation), B (>20-50% degradation) and C (<20% degradation)
OCI-LY-10 results at 4 hours. The letter codes for % IRAK4 degradation indicate the percentage of IRAK4 degraded after 4 hours across three different concentrations: A (>50% degradation), B (>20-50% degradation) and C (<20% degradation).

| Compound | OCI-LY10 % IRAK4 Degradation |
| --- | --- |
| N#Cc1cnc2c(cnn2-c2cc(NC3CC3)c(C(=O)N[C@H]3CC[C@H](C(=O)NCCOCCNCCOCCOCCNc4cccc5c4C(=O)N(C4CCC(=O)NC4=O)C5=O)CC3)cn2)c1 (stereo partly drawn) [I-45, 6-(5-cyano-1H-pyrazolo[3,4-b]pyridin-1-yl)-4-(cyclopropylamino)-N-((1R,4R)-4-((14-((2-(2,6-dioxopiperidin-3-yl)-1,3-dioxoisoindolin-4-yl)amino)-3,9,12-trioxa-6-azatetradecyl)carbamoyl)cyclohexyl)nicotinamide] | C (<20% degradation) |
| N#Cc1cnc2c(cnn2-c2cc(NC3CC3)c(C(=O)NCC(F)COCCOCCOCCNc3cccc4c3C(=O)N(C3CCC(=O)NC3=O)C4=O)cn2)c1 (stereo not drawn) [I-46, 6-(5-Cyanopyrazolo[3,4-b]pyridin-1-yl)-4-(cyclopropylamino)-N-[3-[2-[2-[2-[[2-(2,6-dioxo-3-piperidyl)-1,3-dioxo-isoindolin-4-yl]amino]ethoxy]ethoxy]ethoxy]-2-fluoro-propyl]pyridine-3-carboxamide] | C (<20% degradation) |
| O=C1CCC(N2C(=O)c3cccc(NCCOCCOCC(F)CNC(=O)c4cnc(Nc5ccc6cnccc6n5)cc4NC4CC4)c3C2=O)C(=O)N1 (stereo not drawn) [I-61] | C (<20% degradation) |
| CC(OCCOCCOCCNc1cccc2c1C(=O)N(C1CCC(=O)NC1=O)C2=O)C(F)CNC(=O)c1cnc(Nc2ccc3cnccc3n2)cc1NC1CC1 (stereo not drawn) [I-62] | C (<20% degradation) |
| CC(C)(OCCOCCOCCOCCOCCNc1cccc2c1C(=O)N(C1CCC(=O)NC1=O)C2=O)C(F)CNC(=O)c1cnc(Nc2ccc3cnccc3n2)cc1NC1CC1 (stereo not drawn) [I-64] | C (<20% degradation) |
| CC(C)(OCCOCCOCCNc1cccc2c1C(=O)N(C1CCC(=O)NC1=O)C2=O)C(F)CNC(=O)c1cnc(Nc2ccc3ncsc3c2)cc1NC1CC1 (stereo not drawn) [I-65] | C (<20% degradation) |
| CC(OCCOCCOCCOCCOCCNc1cccc2c1C(=O)N(C1CCC(=O)NC1=O)C2=O)C(F)CNC(=O)c1cnc(-n2ncc3cc(C#N)cnc32)cc1NC1CC1 (stereo not drawn) [I-66] | C (<20% degradation) |
| CC(C)(OCCOCCOCCOCCOCCNc1cccc2c1C(=O)N(C1CCC(=O)NC1=O)C2=O)C(F)CNC(=O)c1cnc(Nc2ccc3ncsc3c2)cc1NC1CC1 (stereo not drawn) [I-68] | C (<20% degradation) |
| CC(COCC(F)CNC(=O)c1cnc(Nc2ccc3cnccc3n2)cc1NC1CC1)OCCOCCNc1cccc2c1C(=O)N(C1CCC(=O)NC1=O)C2=O (stereo not drawn) [I-70] | C (<20% degradation) |
| CC(OCCOCCOCCOCCNc1cccc2c1C(=O)N(C1CCC(=O)NC1=O)C2=O)C(F)CNC(=O)c1cnc(-n2ncc3cc(C#N)cnc32)cc1NC1CC1 (stereo not drawn) [I-71] | C (<20% degradation) |
| CC(C)(OCCNc1cccc2c1C(=O)N(C1CCC(=O)NC1=O)C2=O)C(F)CNC(=O)c1cnc(Nc2ccc3cnccc3n2)cc1NC1CC1 (stereo not drawn) [I-74] | C (<20% degradation) |
| CC(C)(OCCNc1cccc2c1C(=O)N(C1CCC(=O)NC1=O)C2=O)C(F)CNC(=O)c1cnc(-n2ncc3cc(C#N)cnc32)cc1NC1CC1 (stereo not drawn) [I-75] | C (<20% degradation) |
| CC(OCCNc1cccc2c1C(=O)N(C1CCC(=O)NC1=O)C2=O)C(F)CNC(=O)c1cnc(Nc2ccc3cnccc3n2)cc1NC1CC1 (stereo not drawn) [I-77] | C (<20% degradation) |
| CC[C@@H]1[C@H](F)C(=O)N[C@@H]1COc1nccc2cc(C(=O)NCCOCCOCCOCCOCCNc3cccc4c3C(=O)N(C3CCC(=O)NC3=O)C4=O)c(OC)cc12 (stereo partly drawn) [I-78] | C (<20% degradation) |
| CC(C)(OCCOCCNc1cccc2c1C(=O)N(C1CCC(=O)NC1=O)C2=O)C(F)CNC(=O)c1cnc(Nc2ccc3cnccc3n2)cc1NC1CC1 (stereo not drawn) [I-80] | C (<20% degradation) |
| O=C1CCC(N2C(=O)c3cccc(NCCOCC(F)CNC(=O)c4cnc(Nc5ccc6cnccc6n5)cc4NC4CC4)c3C2=O)C(=O)N1 (stereo not drawn) [I-81] | C (<20% degradation) |
| N#Cc1cnc2c(cnn2-c2cc(NC3CC3)c(C(=O)NCC(F)COCCNc3cccc4c3C(=O)N(C3CCC(=O)NC3=O)C4=O)cn2)c1 (stereo not drawn) [I-82] | C (<20% degradation) |

More lines, now with the values ahead:

| OCI-LY10 % IRAK4 Degradation | Compound |
| --- | --- |
| C (<20% degradation) | O=C1CCC(N2C(=O)c3cccc(NCCOCCOCCOCC(F)CNC(=O)c4cnc(Nc5ccc6ncsc6c5)cc4NC4CC4)c3C2=O)C(=O)N1 (stereo not drawn) [I-54] |
| C (<20% degradation) | CC(C)(OCCOCCOCCNc1cccc2c1C(=O)N(C1CCC(=O)NC1=O)C2=O)C(F)CNC(=O)c1cnc(Nc2ccc3cnccc3n2)cc1NC1CC1 (stereo not drawn) [I-56] |
| C (<20% degradation) | N#Cc1cnc2c(cnn2-c2cc(NC3CC3)c(C(=O)NCC(F)COCCOCCOCCOCCOCCNc3cccc4c3C(=O)N(C3CCC(=O)NC3=O)C4=O)cn2)c1 (stereo not drawn) [I-57] |
| C (<20% degradation) | CC(C)(OCCOCCOCCNc1cccc2c1C(=O)N(C1CCC(=O)NC1=O)C2=O)C(F)CNC(=O)c1cnc(-n2ncc3cc(C#N)cnc32)cc1NC1CC1 (stereo not drawn) [I-59] |
| C (<20% degradation) | CC(C)(OCCOCCOCCOCCOCCNc1cccc2c1C(=O)N(C1CCC(=O)NC1=O)C2=O)C(F)CNC(=O)c1cnc(-n2ncc3cc(C#N)cnc32)cc1NC1CC1 (stereo not drawn) [I-60] |
| C (<20% degradation) | CC(OCCOCCOCCNc1cccc2c1C(=O)N(C1CCC(=O)NC1=O)C2=O)C(F)CNC(=O)c1cnc(-n2ncc3cc(C#N)cnc32)cc1NC1CC1 (stereo not drawn) [I-63] |
| C (<20% degradation) | CC(C)(OCCOCCOCCNc1cccc2c1C(=O)N(C1CCC(=O)NC1=O)C2=O)C(F)CNC(=O)c1cnc(Nc2ncc(C#N)cc2F)cc1NC1CC1 (stereo not drawn) [I-67] |
| C (<20% degradation) | CC(C)(OCCOCCOCCOCCOCCNc1cccc2c1C(=O)N(C1CCC(=O)NC1=O)C2=O)C(F)CNC(=O)c1cnc(Nc2ncc(C#N)cc2F)cc1NC1CC1 (stereo not drawn) [I-69] |
| C (<20% degradation) | N#Cc1cnc2c(cnn2-c2cc(NC3CC3)c(C(=O)NCC(F)COCCOCCOCCOCCNc3cccc4c3C(=O)N(C3CCC(=O)NC3=O)C4=O)cn2)c1 (stereo not drawn) [I-72] |
| C (<20% degradation) | CC(C)(OCCOCCOCCOCCNc1cccc2c1C(=O)N(C1CCC(=O)NC1=O)C2=O)C(F)CNC(=O)c1cnc(-n2ncc3cc(C#N)cnc32)cc1NC1CC1 (stereo not drawn) [I-73] |
| C (<20% degradation) | N#Cc1cnc2c(cnn2-c2cc(NC3CC3)c(C(=O)NCC(F)COCCOCCNc3cccc4c3C(=O)N(C3CCC(=O)NC3=O)C4=O)cn2)c1 (stereo not drawn) [I-76] |
| C (<20% degradation) | CC(C)(OCCOCCNc1cccc2c1C(=O)N(C1CCC(=O)NC1=O)C2=O)C(F)CNC(=O)c1cnc(-n2ncc3cc(C#N)cnc32)cc1NC1CC1 (stereo not drawn) [I-79] |
| C (<20% degradation) | CC(OCCNc1cccc2c1C(=O)N(C1CCC(=O)NC1=O)C2=O)C(F)CNC(=O)c1cnc(-n2ncc3cc(C#N)cnc32)cc1NC1CC1 (stereo not drawn) [I-83] |
